The text below walks through data of patent publication US20240391875A1, “ISOQUINOLINONES AND QUINOLINONES AS MODULATORS OF POLRMT” (Pretzel Therapeutics, Inc., priority 2021, published 2024).

The structures appear in SMILES notation.

The first assay deals with POLRMT (Homo sapiens, UniProt O00411). As to the kind of experiment: homogeneous TR-FRET assay of mitochondrial transcription (inhibition of POLRMT). The class given is biochemical. Conditions: isoquinolinone compounds (Table 1). The procedure: The inhibitory activity of the compounds of the present invention against POLRMT were determined by assays based on Bergbrede, T., et al., “An adaptable high-throughput technology enabling the identification of specific transcription modulators,” SLAC Discov., 22, 378-386 (2017).
Chain of POLRMT (O00411 42-1230): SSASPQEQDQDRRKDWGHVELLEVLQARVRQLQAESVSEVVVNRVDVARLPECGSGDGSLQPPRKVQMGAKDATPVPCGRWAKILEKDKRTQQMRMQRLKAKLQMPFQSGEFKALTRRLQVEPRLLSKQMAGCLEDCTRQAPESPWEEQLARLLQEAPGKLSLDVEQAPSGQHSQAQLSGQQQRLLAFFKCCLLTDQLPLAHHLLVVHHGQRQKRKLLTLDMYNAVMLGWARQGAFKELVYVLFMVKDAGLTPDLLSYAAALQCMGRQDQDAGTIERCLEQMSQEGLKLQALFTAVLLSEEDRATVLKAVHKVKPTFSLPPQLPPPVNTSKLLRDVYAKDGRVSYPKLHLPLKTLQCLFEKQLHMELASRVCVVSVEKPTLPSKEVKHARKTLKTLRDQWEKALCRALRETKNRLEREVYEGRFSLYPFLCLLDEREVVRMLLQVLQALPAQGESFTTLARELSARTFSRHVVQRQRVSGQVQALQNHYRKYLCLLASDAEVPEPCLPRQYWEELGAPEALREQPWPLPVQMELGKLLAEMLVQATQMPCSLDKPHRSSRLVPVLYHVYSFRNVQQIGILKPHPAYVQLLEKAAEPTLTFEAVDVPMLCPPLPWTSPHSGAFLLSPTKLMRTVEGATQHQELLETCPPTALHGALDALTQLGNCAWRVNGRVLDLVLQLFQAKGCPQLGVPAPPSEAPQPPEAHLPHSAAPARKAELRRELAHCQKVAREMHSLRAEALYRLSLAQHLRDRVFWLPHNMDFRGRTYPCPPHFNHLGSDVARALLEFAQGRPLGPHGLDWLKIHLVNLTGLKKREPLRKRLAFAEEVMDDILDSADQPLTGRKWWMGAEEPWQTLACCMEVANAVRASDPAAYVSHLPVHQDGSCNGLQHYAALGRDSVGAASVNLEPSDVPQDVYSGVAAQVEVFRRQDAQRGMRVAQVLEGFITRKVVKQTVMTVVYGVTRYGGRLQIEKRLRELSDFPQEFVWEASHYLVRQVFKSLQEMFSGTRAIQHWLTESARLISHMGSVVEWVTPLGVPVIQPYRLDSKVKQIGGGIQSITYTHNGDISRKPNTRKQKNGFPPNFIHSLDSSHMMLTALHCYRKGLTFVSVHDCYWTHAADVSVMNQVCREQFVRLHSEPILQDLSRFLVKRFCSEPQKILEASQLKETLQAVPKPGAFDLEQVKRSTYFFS
The ability of some compounds of the present invention to inhibit POLRMT were determined in a homogeneous TR-FRET Assay using high-throughput screening in a 384-well plate format. This method is used to monitor the activity of mitochondrial transcription through measurement of its product, a 407 bp long RNA transcript. Detection of the product is facilitated by hybridization of two DNA-oligonucleotide probes to specific and adjacent sequences within the RNA product sequence. Upon annealing of the probes, two fluorophores are coupled directly to an acceptor nucleotide probe (ATTO647, 5′), or introduced via a coupled streptavidin with a biotinylated donor nucleotide probe (Europium cryptate) that is brought into sufficient proximity to serve as a fluorescence-donor-acceptor pair. Thus, a FRET signal at 665 nm is generated upon excitation at 340 nm.
Proteins used as transcription factors (POLRMT: NP_005026.3, TFAM: NP_003192.1, TFB2M: NP_071761.1) are diluted from their stocks to working concentrations of 1 μM, 20 μM and 4 μM respectively, in a dilution buffer containing 20 mM Tris-HCl (pH 8.0), 200 mM NaCl, 10% (v/v) glycerol, 1 mM Dithiothreitol (DTT), 0.5 mM EDTA.
DNA template is a pUC18 plasmid with the mitochondrial light strand promotor sequence (1-477) cloned between HindIII and BamHI sites. The DNA template is restriction linearized proximal to the promotor 3′-end (pUC-LSP).
The reaction mixture (10 uL) containing 7.5 nM POLRMT, 15 nM of TFB2M, 30 nM of TFAM, 0.5 nM of DNA template and 500 μM nucleotide triphosphate mix (NTPs) in a reaction buffer (containing 10 mM Tris-HCl (pH 7.5), 10 mM MgCl2, 40 mM NaCl, 10 mM DTT, 0.005% (w/v) Tween-20, 160 units/ml Rnase inhibitor and 0.1 mg/mL BSA) are dispensed to compounds in microplates, using a Thermo Multidrop® dispenser, and incubated at 37° C. in a VWR INCU-Line incubator for 60 minutes after mixing. No nucleotide triphosphate mix is added to negative control samples. Microplates with compounds to be tested in the assay are prepared from 10 mM compound stocks in 100% DMSO, equal amounts of DMSO without any compound are added to positive control and negative control samples.
During the incubation, a mix of the detection reagents is prepared in a buffer such that the enzymatic reaction is terminated due to chelating of Mg-ions and increased ionic strength, containing 50 mM Tris-HCl (pH 7.5), 700 mM NaCl, 20 mM EDTA, and 0.010% (w/v) Tween-20. Europium-streptavidin is pre-incubated with a 200-fold molar excess of a random sequence oligonucleotide to block unspecific binding of oligo, for two hours at ambient temperature in the dark. Afterwards, the blocked Europium-streptavidin is kept on ice until use.
At the end of the enzymatic reaction time, 5 μL detection oligo mix in the detection buffer is added, and assay plates are mixed and kept at ambient temperature for one hour, protected from light. The concentration of the Acceptor nucleotide oligo (e.g., ATTO647N-5′-[…]-3′) and Donor nucleotide oligo (e.g., bio-5′-AACACATCTCT(-bio)GCCAAACCCCA-bio-3′) in each assay well is 1 nM, and 3 nM, respectively.
After incubation with oligo mix, 5 μL of pre-blocked Europium-streptavidin reagent is dispensed to each assay well, assay plates are again mixed and kept at ambient temperature for one hour, protected from light.
The generated signal is measured with BMG Pherastar microtiter plate reader with a TRF light unit, using excitation at 340 nm, an integration time of 200 μs, and a delay time of 100 μs, before detection at 620 nm and 665 nm. The ratio of donor- and acceptor-fluorescence is used as a measure of the generated transcript product (i.e. enzymatic activity).
For orientation: In TR-FRET formats the signal depends on donor and acceptor labels being close together.
Compound `CCc1ccccc1-c1c[nH]c(=O)c2cc(OCC#N)ccc12` [Example 137, 2-((4-(2-ethylphenyl)-1-oxo-1,2-dihydroisoquinolin-7-yl)oxy)acetonitrile] came in with an IC50 of 300 nM.
Still for that read-out and setting: the result for `C[C@@H](Oc1ccc2c(-c3ccc(F)cc3Cl)c[nH]c(=O)c2c1)C(=O)N1CCOCC1(C)C` [Example 107, (R)-4-(2-chloro-4-fluorophenyl)-7-((1-(3,3-dimethylmorpholino)-1-oxopropan-2-yl)oxy)isoquinolin-1(2H)-one] reads 200 nM; that for `CC(=O)N1CCCC(Oc2ccc3c(-c4ccccc4C)c[nH]c(=O)c3c2)C1` (stereo not shown) [Example 42, 7-((1-acetylpiperidin-3-yl)oxy)-4-(o-tolyl)isoquinolin-1(2H)-one], 7000 nM.
Consider `Cc1ccccc1-c1c[nH]c(=O)c2cc(O[C@H](C)C(=O)N3CCCC(S(C)(=O)=O)C3)ccc12` (single isomer, unassigned) [Example 97], for which inhibition was half-maximal at 300 nM (IC50).
Still for that read-out and setting: the result for `CCOC(=O)C(C)Cc1ccc2c(-c3ccccc3C)c[nH]c(=O)c2c1` (stereo not shown) [Example 40, ethyl 2-methyl-3-(1-oxo-4-(o-tolyl)-1,2-dihydroisoquinolin-7-yl)propanoate] reads 1000 nM; that for `C[C@@H](Oc1ccc2c(-c3ccc(F)cc3Cl)c[nH]c(=O)c2c1)C(=O)N1CCC(F)(F)CC1` [Example 91, (R)-4-(2-chloro-4-fluorophenyl)-7-((1-(4,4-difluoropiperidin-1-yl)-1-oxopropan-2-yl)oxy)isoquinolin-1(2H)-one], 300 nM.
For `Cc1ccccc1-c1c[nH]c(=O)c2cc(O[C@H](C)C(=O)N3CCC(C(=O)O)CC3)ccc12` [Example 24, (R)-1-(2-((1-oxo-4-(o-tolyl)-1,2-dihydroisoquinolin-7-yl)oxy)propanoyl)piperidine-4-carboxylic acid], the IC50 came out at 50 nM. Compared with the last compound, the IC50 is about 6-fold lower.
Take `C[C@@H](Oc1ccc2c(-c3ccc(F)cc3Cl)c[nH]c(=O)c2c1)C(=O)N1CCOC[C@H]1C(N)=O` [Example 123, (S)-4-((R)-2-((4-(2-chloro-4-fluorophenyl)-1-oxo-1,2-dihydroisoquinolin-7-yl)oxy)propanoyl)morpholine-3-carboxamide]: the IC50 is 300 nM.
`C[C@H](Oc1ccc2c(-c3ccc(F)cc3Cl)c[nH]c(=O)c2c1)C(=O)N1CCC[C@H](C(=O)O)C1` [Example 59, (S)-1-((S)-2-((4-(2-chloro-4-fluorophenyl)-1-oxo-1,2-dihydroisoquinolin-7-yl)oxy)propanoyl)piperidine-3-carboxylic acid] yielded an IC50 of 25000 nM.
The same measure, in the same setting: the result for `CC(=O)N1CC[C@@H](Oc2ccc3c(-c4ccccc4C)c[nH]c(=O)c3c2)C1` [Example 16, (R)-7-((1-acetylpyrrolidin-3-yl)oxy)-4-(o-tolyl)isoquinolin-1(2H)-one] reads 51000 nM; that for `Cc1ccccc1-c1c[nH]c(=O)c2cc(O[C@H](C)C(=O)N3CCC[C@H](C(=O)O)C3)ccc12` [Example 22, (S)-1-((R)-2-((1-oxo-4-(o-tolyl)-1,2-dihydroisoquinolin-7-yl)oxy)propanoyl)piperidine-3-carboxylic acid], 40 nM; that for `Cc1ccccc1-c1c[nH]c(=O)c2cc(C(=O)N3CCCC3)ccc12` [Example 19, 7-(pyrrolidine-1-carbonyl)-4-(o-tolyl)isoquinolin-1(2H)-one], more than 100000 nM.
The compound `C[C@@H](Oc1ccc2c(-c3ccc(F)cc3Cl)c[nH]c(=O)c2c1)C(=O)N1CC2CC1CN2C` (stereo partly drawn) [Example 127, 4-(2-chloro-4-fluorophenyl)-7-(((2R)-1-(5-methyl-2,5-diazabicyclo[2.2.1]heptan-2-yl)-1-oxopropan-2-yl)oxy)isoquinolin-1(2H)-one] showed an IC50 of 2000 nM. That is a single-digit micromolar value.
The same measure, in the same setting: the result for `Cc1sccc1-c1c[nH]c(=O)c2cc(OCC#N)ccc12` [Example 133, 2-((4-(2-methylthiophen-3-yl)-1-oxo-1,2-dihydroisoquinolin-7-yl)oxy)acetonitrile] reads 1000 nM; that for `C[C@@H](Oc1ccc2c(-c3ccc(F)cc3Cl)c[nH]c(=O)c2c1)C(=O)N1CCCC(S(C)(=O)=O)C1` (single isomer, unassigned) [Example 96], 2000 nM.
The compound `COC[C@@H]1COCCN1C(=O)[C@@H](C)Oc1ccc2c(-c3ccc(F)cc3Cl)c[nH]c(=O)c2c1` [Example 102, 4-(2-chloro-4-fluorophenyl)-7-(((R)-1-((R)-3-(methoxymethyl)morpholino)-1-oxopropan-2-yl)oxy)isoquinolin-1(2H)-one] came in with a concentration for half-maximal inhibition (IC50) of 700 nM.
For the compound `Cc1ccccc1-c1c[nH]c(=O)c2cc(NCC(N)=O)ccc12` [Example 70, 2-((1-oxo-4-(o-tolyl)-1,2-dihydroisoquinolin-7-yl)amino)acetamide], the half-inhibitory concentration (IC50) is 8000 nM.
Turning to `C[C@@H](Oc1ccc2c(-c3ccc(F)cc3Cl)c[nH]c(=O)c2c1)C(=O)N1CCN(S(C)(=O)=O)CC1` [Example 130, (R)-4-(2-chloro-4-fluorophenyl)-7-((1-(4-(methylsulfonyl)piperazin-1-yl)-1-oxopropan-2-yl)oxy)isoquinolin-1(2H)-one], the IC50 turned out to be 2000 nM.
For the compound `C[C@@H](Oc1ccc2c(-c3ccc(F)cc3Cl)c[nH]c(=O)c2c1)C(=O)N1CCO[C@@H](C(N)=O)C1` [Example 129, (R)-4-((R)-2-((4-(2-chloro-4-fluorophenyl)-1-oxo-1,2-dihydroisoquinolin-7-yl)oxy)propanoyl)morpholine-2-carboxamide], the IC50 is 1000 nM.
Compound `Cc1ccccc1-c1c[nH]c(=O)c2cc(O[C@H](C)C(=O)N3CC[C@H](C(=O)O)C3)ccc12` [Example 35, (S)-1-((R)-2-((1-oxo-4-(o-tolyl)-1,2-dihydroisoquinolin-7-yl)oxy)propanoyl)pyrrolidine-3-carboxylic acid] came in with an IC50 of 400 nM. Compared with the last compound, the IC50 is about 2.5-fold lower.
The same measure, in the same setting: the result for `CC(C)Oc1ccc2c(-c3ccccc3C#N)c[nH]c(=O)c2c1` [Example 34, 2-(7-isopropoxy-1-oxo-1,2-dihydroisoquinolin-4-yl)benzonitrile] reads 14000 nM; that for `Cc1ccccc1-c1c[nH]c(=O)c2cc(OCCN(C)C)ccc12` [Example 10, 7-(2-(dimethylamino)ethoxy)-4-(o-tolyl)isoquinolin-1(2H)-one], more than 100000 nM.
`Cc1ccccc1-c1c[nH]c(=O)c2cc(OCC(F)(F)F)ccc12` [Example 65, 4-(o-tolyl)-7-(2,2,2-trifluoroethoxy)isoquinolin-1(2H)-one] gave an IC50 of 30 nM. This lies in the double-digit nanomolar range.
`Cc1ccccc1-c1c[nH]c(=O)c2cc(NC(C)C(N)=O)ccc12` (stereo not shown) [Example 67, 2-((1-oxo-4-(o-tolyl)-1,2-dihydroisoquinolin-7-yl)amino)propanamide] came in with a half-inhibitory concentration (IC50) of 12000 nM.

Staying with this assay, now noted: quinolinone compounds (Table 2).
`Cc1ccccc1-c1cc(=O)[nH]c2cc(OC(C)C)ccc12` [Example Q10, 7-isopropoxy-4-(o-tolyl)quinolin-2(1H)-one] showed an IC50 of 2000 nM.
As to `CCC(C)Oc1ccc2c(-c3ccccc3C)cc(=O)[nH]c2c1` (stereo not shown) [Example Q11, 7-(sec-butoxy)-4-(o-tolyl)quinolin-2(1H)-one], the IC50 was 3000 nM.
With `C[C@@H](Oc1ccc2c(-c3ccc(F)cc3Cl)cc(=O)[nH]c2c1)C(=O)N(C)C` [Example Q6, (R)-2-((4-(2-chloro-4-fluorophenyl)-2-oxo-1,2-dihydroquinolin-7-yl)oxy)-N,N-dimethylpropanamide], half-maximal inhibition (IC50) required 18000 nM.
As for `Cc1ccccc1-c1cc(=O)[nH]c2cc(O[C@H](C)C(=O)N(C)C)ccc12` (single isomer, unassigned) [Example Q7], the IC50 came out at 9000 nM.

In general, IC50 refers to the concentration that inhibits the measured activity by half. A low value points to inhibition by little substance.
